“And” between values parts separate entries of the source, which are not always exact repeats. Equal entries are not always repeated. Where two headings read alike, the source gives them in different places.

We go through three compounds from PMC8051587 (ACS chemical biology, 2020).

One assay concerns A/WSN/33 M2 N31S virus. The assay is classed as cell-based, influenza A virus. Conditions: for EC50: read-out: EC50 ± SD.
The test system of assay [1] is A/WSN/33 virus (with naturally occurring M2 N31). The assay can be described thus: microbe, parasite or virus in culture. The assay is classed as cell-based. Conditions: for EC50: read-out: EC50 ± SD.
Assay [2] deals with T1, full-length A/Udorn/72 M2 S31N (Influenza A virus, UniProt P0DOF5, S31N). The note with it: cited from earlier work.
Assay [3] has as its target T1, full-length A/Udorn/72 M2 S31N.
Setting [4] is: CPE inhibition assay, MDCK cells, amantadine-resistant A/WSN/33 (M2 N31).

Take `NC12CC3CC(CC(C3)C1)C2` [Amantadine, amantadine]: the EC50 with A/WSN/33 M2 N31S virus is 250 ± 70 nM. Also, the “EC50 ± SD” value in assay [1] (setting [4]) is “not active”.
For `c1csc(-c2cc(CNC34CC5CC(CC(C5)C3)C4)on2)c1` [Compound 6], the “EC50 ± SD” value in the assay with A/WSN/33 M2 N31S virus is “not active”. For the same compound, the IC50 in assay [2] (read-out: IC50 in TEVC with M2 S31N, previously reported) was 16000 nM. Also, the Kd in assay [2] (read-out: Kd (literature value, footnote g), footnote to the Kd value, ref [3]) was 16000 nM. Besides, the EC50 in assay [1] (setting [4]) amounted to 153 nM. Besides, in assay [3], the “Blockage Eliminated in Wash Out(%)” value was determined as 6.8 ± 1.2%; the affinity, expressed as Kd, was 7500 ± 300 nM; the “Percent Block” value is 99.2% and 99 ± 1%; the kon is 2280 ± 150 M⁻¹ s⁻¹.
Consider `CCOC(=O)C1=C[C@@H](OC(CC)CC)[C@H](NC(C)=O)[C@@H](N)C1` [Oseltamivir], for which the EC50 with A/WSN/33 M2 N31S virus came out at 30 ± 20 nM; in assay [1] (Influenza A virus, WSN, MDCK) it was 10 ± 10 nM.

By EC50 is commonly meant the concentration needed to bring the measured effect to its halfway point. The IC50 is the concentration needed to halve the response being measured. One may read the Kd as the free concentration of one partner at which half of the binding sites on the other are occupied at equilibrium, for simple one-to-one binding. By kon is commonly meant the rate constant with which the complex forms. Read a high kon as faster complex formation.
